“Also recorded” adds a separate entry of the source. Blank lines part the entries; values can stand above or below the molecule they belong to.
What was measured:
[1] = molecular target: ghrelin receptor crystallization construct (hGHSR29-346 (T130K/N188Q)); experiment: [3H]-Compound 21 saturation binding, crystallization construct; parameters: species or system human; conditions: Sf9 membranes, 3.125–50 nM radioligand, on ice 1 h, pH7.5; mean ± s.d.
Protocol: (§1) The homogenate was ultracentrifuged at 100,000×g for 30 min at 4 °C, and the pellet was washed twice with cold homogenization buffer. The protein concentration was determined using BCA Protein Assay (Thermo Fisher). […] Bound [^3H]-Compound 21 was quantified with an AccuFLEX LCS-8000 liquid scintillation counter (Hitachi) after addition of 2.5 ml of Clear-Sol liquid scintillation cocktail (Nacalai Tesque). Data were analyzed by nonlinear curve-fitting using the program GraphPad Prism 5. Binding data are reported as means ± s.d.

ghrelin receptor WT = molecular target: T1, ghrelin receptor WT (Homo sapiens, UniProt Q92847, N188Q); experiment: [3H]-Compound 21 saturation binding, WT; conditions: HEK293 membranes, on ice 1 h, pH7.5; mean ± s.d., three independent experiments
T1 construct: Full-length human ghrelin receptor was used for the mutagenesis; expressed in transfected cells
T1 sequence (Q92847 whole entry N188Q): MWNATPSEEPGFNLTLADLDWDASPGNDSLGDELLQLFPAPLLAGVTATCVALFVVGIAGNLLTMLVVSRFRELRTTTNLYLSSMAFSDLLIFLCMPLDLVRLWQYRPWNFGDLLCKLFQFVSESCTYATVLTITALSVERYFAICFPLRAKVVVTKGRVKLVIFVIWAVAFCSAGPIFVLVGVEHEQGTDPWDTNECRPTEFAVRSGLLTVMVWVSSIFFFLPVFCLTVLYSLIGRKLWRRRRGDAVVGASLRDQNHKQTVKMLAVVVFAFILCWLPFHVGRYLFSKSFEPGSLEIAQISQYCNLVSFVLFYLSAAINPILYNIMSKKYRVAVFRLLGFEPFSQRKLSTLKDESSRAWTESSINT
Protocol: as §1

[2] = test system: ghrelin receptor WT (hGHSR WT); experiment: Luciferase assay, basal (constitutive) activity in presence of Compound 21; format: cell-based, human; conditions: CHO cells, 10^-10 to 10^-6 M Compound 21, 1 h; n=5–6
Protocol: Transfections were performed using the FuGENE HD transfection reagent (Promega). The next day, the transfected cells were collected and plated into 96-well white microplates (Corning) at a density of 2.5 × 10^4 cells/well. After a 1-day incubation, the luciferase activities were determined using Dual-Luciferase Reporter Assay System (Promega). […] All firefly luciferase activities were normalized against Renilla luciferase activity. All experiments were performed in sextuplicate.

ghrelin receptor [3] = molecular target: T2, ghrelin receptor (Homo sapiens, UniProt Q92847); experiment: Crystal structure of bRIL-hGHSR-Fab 7881-Compound 21 complex; conditions: 3.3 Å resolution, PDB 6KO5
T2 construct: expressed in transfected cells; host or cells: HEK293 cells (membrane preparations, transient expression)
T2 sequence (Q92847 whole entry): as the sequence (Q92847 whole entry N188Q) above, with Q188N counted along it
Protocol: The complex was purified by gel filtration using Superdex 200 Increase 10/300 GL. […] In the mixture, the protein solution:lipid mass ratio was fixed at 2:3 using the twin-syringe mixing method. Crystallization experiments were carried out in 96-well glass sandwich plates (Molecular Dimensions) on an NT8-LCP crystallization robot (Formulatrix) using a 30 nl protein solution cubic phase overlaid with 600 nl precipitant solution, and incubated at 20 °C. The best crystals were obtained from precipitant solution containing 100 mM MES (pH 6.6–7.0), 400 mM potassium acetate, and 36–40% polyethylene glycol (PEG) 300. The crystals were collected within 2 weeks using mesh grid loops (WAKENBTECH) and flash-cooled in liquid nitrogen. Initial crystals were obtained in hanging drops by vapor diffusion at 20 °C from the precipitant solution containing 100 mM bicine (pH 9.0), 100 mM sodium chloride, and 30% PEG550MME.
All diffraction datasets were collected at SPring-8 BL32XU[42] using a micro-focused X-ray beam. Loop-harvested microcrystals were identified using raster scan and analysis by SHIKA[43]. […] The structure was determined by molecular replacement with the program PHASER[47], using the receptor portions of the antagonist-bound orexin receptor (PDB ID: 4S0V), bRIL (PDB ID: 1M6T), and the Fab 7881 antibody (this study, ID: 6KS2) as the search models. […]

ghrelin receptor D99A = experiment: Intracellular Ca2+ concentration assay, D99A; format: cell-based, human; conditions: Fig. 4a
Protocol: (§2) The positions of mutated amino acids and primers are listed in Supplementary Table 2.
(§3) Transfections were performed using the FuGENE HD transfection reagent (Promega). The next day, the transfected cells were collected and plated into 96-well black-wall assay microplates (Corning) at a density of 3 × 10^4 cells/well. After a 1-day incubation, the cells were incubated for 1 h with 100 μl of calcium indicator Fluo-4 from the FLIPR Calcium 5 Assay Kit (Molecular Devices) in Hank’s BSS containing 20 mM HEPES-NaOH (pH7.5) and 2.5 mM probenecid. Fifty-microliter aliquots of samples were tested to induce changes in fluorescence due to increased calcium concentration on a FlexStation3 (Molecular Devices). Maximum [Ca^2+]i changes were determined in quadruplicate (n = 4).

ghrelin receptor E124A = experiment: Intracellular Ca2+ concentration assay, E124A; format: cell-based, human; conditions: Fig. 4c
Protocol: as §2, §3

[4] = peripheral injection; ref [3]; cited from earlier work
ghrelin receptor R283A = experiment: Intracellular Ca2+ concentration assay, R283A; format: cell-based, human; conditions: Fig. 4d
Protocol: as §2, §3

ghrelin receptor R102A = experiment: Intracellular Ca2+ concentration assay, R102A; format: cell-based, human; conditions: Fig. 4b
Protocol: as §2, §3

ghrelin receptor F286A = test system: T3, ghrelin receptor F286A; experiment: Intracellular Ca2+ concentration assay, F286A; format: cell-based, human; conditions: Fig. 4f
T3 construct: Full-length human ghrelin receptor was used for the mutagenesis; expressed in transfected cells; host or cells: CHO cells
Protocol: as §2, §3

ghrelin receptor [5] = conditions: cited from earlier work
From the text: No other peptide hormone is known to require such an acyl-modification for its activity.

bRIL-hGHSR = experiment: Protein thermostability assay (CPM); format: biochemical, human; conditions: Compound 21 present in both samples
Protocol: The thermal stability analysis was performed with the thiol-specific fluorochrome N-[4-(7-diethylamino-4-methyl-3-coumarinyl)phenyl]maleimide (CPM)[40]. CPM at 4 mg ml^−1 in DMSO was diluted 40-fold into buffer containing 20 mM HEPES-NaOH (pH 7.5), 100 mM NaCl, 0.01% LMNG, and 0.001% CHS. Purified protein (20 µg) was mixed with diluted CPM and incubated on ice for 15 min in darkness. The reaction mixture (20 µl) was heated in a controlled manner with a ramp rate of 3 °C min^−1 in a MyiQ2 thermal cycler (Bio-Rad). […] Assays were performed over a temperature range starting from 4 °C and ending at 80 °C. The peak in the derivative of the fluorescence signal was used to determine the melting temperature.

Kd [1]: 17.2 ± 7.1 nM
Molecule: Cc1nc2ccc(Oc3ccc(Br)cc3F)nc2c(=O)n1CC1CCCN(C(C)C)C1 (centres unmarked) [Compound 21]
Kd (ghrelin receptor WT): 4.42 ± 0.76 nM | effect on constitutive activity [2]: no effect on the constitutive activity; also recorded: neutral antagonist | interaction seen in crystal structure (ghrelin receptor [3]): forms a hydrogen bond with R283^6.55; also recorded: π–cation interaction with R102^2.63; also recorded: forms hydrophobic interactions with the F279^6.51, F309^7.39, and F312^7.42; also recorded: three hydrophobic contacts with residues I178^4.60, L181^4.63, and M213^5.39

Molecule: CCCCCCCC(=O)OC[C@H](NC(=O)[C@H](CO)NC(=O)CN)C(=O)N[C@@H](Cc1ccccc1)C(=O)N[C@@H](CC(C)C)C(=O)N[C@@H](CO)C(=O)N1CCC[C@H]1C(=O)N[C@@H](CCC(=O)O)C(=O)N[C@@H](Cc1c[nH]cn1)C(=O)N[C@@H](CCC(N)=O)C(=O)N[C@@H](CCCNC(=N)N)C(=O)N[C@H](C(=O)N[C@@H](CCC(N)=O)C(=O)N[C@@H](CCC(N)=O)C(=O)N[C@@H](CCCNC(=N)N)C(=O)N[C@@H](CCCCN)C(=O)N[C@@H](CCC(=O)O)C(=O)N[C@@H](CO)C(=O)N[C@@H](CCCCN)C(=O)N[C@@H](CCCCN)C(=O)N1CCC[C@H]1C(=O)N1CCC[C@H]1C(=O)N[C@@H](C)C(=O)N[C@@H](CCCCN)C(=O)N[C@@H](CC(C)C)C(=O)N[C@@H](CCC(N)=O)C(=O)N1CCC[C@H]1C(=O)N[C@@H](CCCNC(=N)N)C(=O)O)C(C)C [Ghrelin]
receptor activity (ghrelin receptor D99A): abolishes the receptor activity | ghrelin-induced receptor function (ghrelin receptor E124A): completely abolished ghrelin-induced receptor function | appetite [4]: induces appetite stimulation following peripheral injection | ghrelin-induced receptor function (ghrelin receptor R283A): completely abolished ghrelin-induced receptor function | receptor activity (ghrelin receptor R102A): abolishes the receptor activity | ghrelin-induced receptor activity (ghrelin receptor F286A): only slightly lower than that of the WT ghrelin receptor

Molecule: des-acyl ghrelin
activity of ghrelin forms (ghrelin receptor [5]; ref [2],[5]): inactive

Molecule: n-octanoyl ghrelin
potency of ghrelin forms (ghrelin receptor [5]; reference not given): most potent active form

interaction seen in crystal structure (ghrelin receptor [3]): binds to intracellular loop 3 (ICL3)
B1: Fab 7881: Fab fragment antibody specific for the ghrelin receptor, binds ICL3 (antibody, V domains shown)
VH: EVQLQQSGAELVRPGASVKLSCKASGYTFTDYEMHWVKQTPVHGLEWIGAIDPETGGTVYNQKFKGKATLTADISSTTAYMELRSLTSEDSAVYFCISEDIDESKDYWGQGTTLTVSS
VL: DIVMTQSPSSLAVSAGEKVTLSCKSSQSLFNSRTRKNYLAWYQQKPGLSPTLLIYWASTRKSGVPDRFTGSGSGTDFTLTITSVQAEDLAVYYCKQSYYLRTFGGGTKLEIK
increase of Tm (bRIL-hGHSR): about 5 °C

— paper PMC7438500 (Nature Communications, 2020)
